The values that follow come from article PMC4408918 (Journal of medicinal chemistry, 2012).

The subject of one data set is P. falciparum K1. The data set is described as follows: P. falciparum K1 growth inhibition. The format is cell-based. To be noted: Plasmodium falciparum, K1, 72 h, read-out: K1 EC50.
The subject of the next data set is P. berghei (NK-65). The data set can be described thus: Oral efficacy in P. berghei. To be noted: 100 and 200 mg/kg oral on days 3, 4, 5.
The next data set deals with P. falciparum 3D7. The data set can be described thus: P. falciparum 3D7 growth inhibition. It is filed as cell-based. To be noted: Plasmodium falciparum, 3D7, 72 h, read-out: 3D7 EC50.
The nature of data set [1]: Liver microsomal stability, human. The format is in vitro ADME. To be noted: both, pH 7.4. (Microsomes from liver hold many membrane-bound enzymes, among them those of drug oxidation.)
The nature of data set [2]: In vivo pharmacokinetics, oral, female CD-1 mice. To be noted: for AUC(0-inf) / CL/F: female, CD-1, mouse, po.
Another data set concerns Kir6.2/SUR2A. To be noted: read-out: Kir6.2 IC50; cited from earlier work.
A short description of data set [3]: Liver microsomal stability, mouse. It is filed as in vitro ADME. To be noted: female, CD9, mouse, mouse liver microsomes, pH 7.4.
The nature of data set [4]: Parallel Artificial membrane Permeability Assay. To be noted: triplicate. The format is in vitro ADME.
In the next data set the target is CYP2D6 (Homo sapiens, UniProt P10635). The data set is described as follows: CYP inhibition in human liver microsomes, CYP2D6. The format is in vitro ADME. To be noted: 20 minutes at 37 °C, two concentrations.
For a further data set, the system named is Nav1.5. To be noted: cited from earlier work.
[5] abbreviates: human liver microsomes (pooled).

Where two headings read alike, the source gives them in different places.

Sequence of CYP2D6 (P10635 whole entry): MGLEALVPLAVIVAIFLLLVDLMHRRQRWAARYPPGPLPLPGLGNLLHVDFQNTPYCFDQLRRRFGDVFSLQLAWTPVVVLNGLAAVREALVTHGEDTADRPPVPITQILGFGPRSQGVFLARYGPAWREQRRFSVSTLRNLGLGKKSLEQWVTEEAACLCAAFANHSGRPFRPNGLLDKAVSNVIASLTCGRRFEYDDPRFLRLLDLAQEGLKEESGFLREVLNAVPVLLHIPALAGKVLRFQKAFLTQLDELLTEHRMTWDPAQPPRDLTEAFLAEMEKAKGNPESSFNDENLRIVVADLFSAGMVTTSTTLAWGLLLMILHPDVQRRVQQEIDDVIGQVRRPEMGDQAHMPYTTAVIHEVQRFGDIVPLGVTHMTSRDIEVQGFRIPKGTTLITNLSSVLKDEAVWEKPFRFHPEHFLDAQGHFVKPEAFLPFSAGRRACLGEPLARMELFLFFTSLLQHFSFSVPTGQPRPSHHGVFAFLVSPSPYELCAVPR

What is called EC50 is the concentration needed to bring the measured effect to its halfway point. One may read the CLint scaled as the rate of metabolic loss divided by the concentration. Usually AUC(0-inf) stands for the area under the concentration-time curve extrapolated to infinity. Read a low AUC(0-inf) as low exposure. As a reminder, the CL/F is clearance divided by bioavailability, as obtained after extravascular dosing. Turning to `O=C(CCc1ccccc1)c1ccccc1OCC(O)CN1CCN(C(c2ccccc2)c2ccccc2)CC1` (stereo not shown) [Compound 1], the EC50 stood at 0.1 ± 0.05 µM in the data set on P. falciparum K1 and 0.06 ± 0.01 µM with P. falciparum 3D7. For the same molecule, in the data set on P. berghei (NK-65), the “overall in vivo efficacy” value is on record as “not significantly better than that of the negative controls”. In addition, the CLint scaled at 2000 µM in data set [1] (setting [5]) came to 14 ± 1 mL/min/kg. For the same molecule, the AUC(0-inf) in [2] (plasma, 20 mg/kg) is 0.249 µM·h; in data set [2] (plasma, 200 mg/kg) it was 3.1 µM·h; in data set [2] (plasma, 500 mg/kg), 3.37 µM·h. Also, the CL/F in data set [2] (plasma, 20 mg/kg) was 2350 mL/min/kg; in data set [2] (plasma, 200 mg/kg) it was 1890 mL/min/kg; in data set [2] (plasma, 500 mg/kg), 4340 mL/min/kg.

What is called IC50 is the concentration that inhibits the measured activity by half. For `O=C(CCc1ccccc1)c1cc(F)ccc1OCC(O)CN1CCN(C(c2ccccc2)c2ccccc2)CC1` (stereo not shown) [Compound 2], the IC50 in the data set with Kir6.2/SUR2A is above 5 µM. The CLint scaled at 2000 µM in data set [1] (microsomes) was found to be 5 ± 2 mL/min/kg. In addition, in data set [2] (plasma, 200 mg/kg), the AUC(0-inf) amounted to 6.17 µM·h and the CL/F is 920 mL/min/kg.

Regarding `O=C(CCc1ccc(F)cc1)c1ccccc1OCC(O)CN1CCN(C(c2ccccc2)c2ccccc2)CC1` (stereo not shown) [Compound 3], the CLint scaled at 2000 µM in data set [3] worked out at 43 ± 3 mL/min/kg; in [1] (setting [5]) it was 13 ± 1 mL/min/kg. In addition, the “Avg. Pe (PAMPA permeability)” value in data set [4] is listed as “und^a”. Further, the AUC(0-inf) in [2] (plasma, 20 mg/kg) was determined as 0.298 µM·h; in data set [2] (plasma, 200 mg/kg) it was 5.67 µM·h; in data set [2] (plasma, 500 mg/kg) it was 4.08 µM·h. The CL/F in [2] (plasma, 20 mg/kg) was 1900 mL/min/kg; in data set [2] (plasma, 200 mg/kg), 1000 mL/min/kg; in [2] (plasma, 500 mg/kg) it was 3480 mL/min/kg.

Turning to `O=C(CCc1ccccc1)c1ccccc1OCC(O)CN1CCC(c2ccccc2)CC1` (stereo not shown) [Compound 4], on CYP2D6, the CYP2D6 inhibition result is “weak CYP2D6 inhibitors”. For the same molecule, the “overall in vivo efficacy” value in the data set with P. berghei (NK-65) is “some efficacy in suppressing parasitemia and life extension, but did not provide durable cures”. The IC50 was above 5 µM with Kir6.2/SUR2A; above 5 µM in the data set with Nav1.5 (read-out: Nav1.5 phasic IC50, phasic); above 5 µM with Nav1.5 (read-out: Nav1.5 tonic IC50, tonic). Besides, the CLint scaled at 2000 µM in data set [3] came out at 27 ± 2 mL/min/kg; in [1] (setting [5]), 11 ± 1 mL/min/kg. Besides, the “improvement in AUCinf over compound 1” value in data set [2] (500 mg/kg oral, female CD-1 mice) is “approximately 5 fold”. The AUC(0-inf) in data set [2] (in vivo, 20 mg/kg) turned out to be 0.224 µM·h; in [2] (in vivo, 200 mg/kg), 6.8 µM·h; in data set [2] (in vivo, 500 mg/kg), 15.3 µM·h. For the same molecule, the CL/F in [2] (in vivo, 20 mg/kg) was 3110 mL/min/kg; in [2] (in vivo, 200 mg/kg), 1020 mL/min/kg; in data set [2] (in vivo, 500 mg/kg), 1140 mL/min/kg.

As for `O=C(CCc1ccccc1)c1cc(F)ccc1OCC(O)CN1CCC(c2ccccc2)CC1` (stereo not shown) [Compound 5], the CYP2D6 inhibition entry on CYP2D6 is recorded as “weak CYP2D6 inhibitors”. Also, the CLint scaled at 2000 µM came to 29 ± 2 mL/min/kg in data set [3] and 19 ± 1 mL/min/kg in data set [1] (setting [5]). In addition, in data set [4], the “Avg. Pe (PAMPA permeability)” value is given as “und^a”. For the same molecule, the AUC(0-inf) is 1.6 µM·h in data set [2] (plasma, 20 mg/kg) and 3.75 µM·h in data set [2] (plasma, 200 mg/kg). In addition, the apparent clearance CL/F in [2] (plasma, 20 mg/kg) was 421 mL/min/kg; in data set [2] (plasma, 200 mg/kg) it was 1790 mL/min/kg. Moreover, the “increase in Cmax with increasing dose from 20 mg/kg to 200 mg/kg” value in [2] (oral, female CD-1 mice) is on record as 2 fold.

With `Cc1ccc(N2CCN(CC(O)COc3ccccc3C(=O)CCc3ccccc3)CC2)cc1` (stereo not shown) [Compound 6], the half-inhibitory concentration (IC50) in the data set on Kir6.2/SUR2A is above 5 µM. For the same molecule, the CLint scaled at 2000 µM in [3] was found to be 30 ± 6 mL/min/kg. In addition, in the data set on Nav1.5, the IC50 is above 5 µM. Also, in data set [4], the “Avg. Pe (PAMPA permeability)” value is given as “und^a”. Also, in data set [2] (in vivo, 200 mg/kg), the AUC(0-inf) came out at 6.49 µM·h and the apparent clearance CL/F was 1000 mL/min/kg.
